The test system of one data set is full-length AR (AR-FL). Put plainly: Degradation experiment on full-length AR (AR-FL) in 22RV1 cells. The format is cell-based. To be noted: 24 h; for AR-FL Dmax % (maximum degradation rate): relative to vehicle control. The protocol:
(§1) Prostate cancer cells 22RV1 were purchased from ATCC, the cell medium was 1640+10% FBS, and the cells were cultured in an incubator at 37° C. under 5% CO2. On day 1, the cells in an exponential phase were collected. With a 1% css-FBS phenol red-free medium, the cell suspension was adjusted to a corresponding concentration and plated into a 6-well plate at 1 mL/well and 100000 cells/well. The next day, a 1% css-FBS phenol-free medium containing the compound to be tested was added, a 1% css-FBS phenol-free medium containing 0.2% DMSO was added to one well as DMSO vehicle control, and the 6-well plate was cultured in an incubator at 37° C. under 5% CO2. After 24 h, the cells were digested with pancreatin and collected into a 1.5 mL centrifuge tube. 15 μL of RIPA lysate (containing 1×protease inhibitor cocktail) was added to each well, and the cells were lysed on ice for 15 min and then centrifuged at 12000 g and 4° C. for 10 min. The supernatant protein samples were collected, and protein quantification was performed by a BCA method. AR-FL and AR-Vs were detected using fully automatic protein expression quantitative analysis, which involved diluting the protein to be tested to 1 mg/mL. 4 μL of the diluted protein samples were added to 1 μL of 5×Master Mix (provided in the kit), and the prepared samples were denatured at 95° C. for 5 min and placed on ice for use. The primary antibodies, AR (CST, 5153S) and β-actin (CST, 3700), were diluted with Antibody Diluent II (provided in the kit) at a dilution ratio of 1:20 and 1:200, respectively. The secondary antibody was a mixed goat anti-mouse and goat anti-rabbit secondary antibody in a ratio of 1:1, and the color development solution was a mixed solution of Lumino-S and Peroxide in a ratio of 1:1. The prepared reagents were successively added to an assay plate according to instructions of the kit and detected on an instrument. Western blot band processing was performed using “Compass for SW”, a fully automatic protein expression quantitative analysis software, in which western blot bands were automatically simulated based on signal values. The degradation rate of AR-FL (3) or AR-Vs (4) relative to vehicle control at different compound concentrations was calculated according to formulas (3) and (4), wherein AR-FLcompound was the relative peak area of AR-FL in the treated group, and AR-FLsolvent was the relative peak area of AR-FL in the vehicle control group; AR-Vscompound was the relative peak area of AR-Vs in the treated group, and AR-Vssolvent was the relative peak area of AR-Vs in the vehicle control group.
(§2) DC50 calculation: the compound concentration DC50 values at which the degradation rate of AR-FL or AR-Vs was 50% were calculated using OriginPro2015 software and analyzed using DoseResp function according to formula (3) or (4).

Data set [1] relates to AR splice variants (AR-Vs). Nature of the data set: Degradation experiment on AR splice variants (AR-Vs) in 22RV1 cells. To be noted: 24 h; for AR-Vs Dmax % (maximum degradation rate): relative to vehicle control. The format is cell-based. The procedure: as §1, §2
In another data set the test system is 22RV1 cells. Put plainly: Experiment 2 on inhibiting 22RV1 cell proliferation (7 days, CellTiter-Glo). To be noted: 1% css-FBS phenol red-free medium, incubated with compound 7 days, read-out: IC50 values on proliferation inhibition of 22RV1 cells. It is filed as cell-based. The procedure, abridged: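 Survival measured by CellTiter-Glo after 7 days of compound exposure, normalised to DMSO controls, with IC50 fitted by dose-response. Cells (22RV1, 2000/well) were seeded overnight in 1% css-FBS phenol red-free medium before dosing.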
For orientation: In ATP-based viability assays light output follows the ATP content of the culture.

Data set [2] can be described thus: Pharmacokinetic test in rats. It is filed as in vivo. To be noted: rat, po; male SD rats, single dose i.g. 5 mg/kg, plasma, 0-24 h. Summed up: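 Male SD rats (200-250 g, 3 per compound), fasted 12-14 h, given a single intragastric dose. Orbital blood into EDTA-K2 at 0, 5, 15, 30 min, 1, 2, 4, 6, 8, 24 h; plasma levels by LC-MS/MS.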
[3] abbreviates: degradation rate 50% relative to vehicle control.

Counter-ions that a name gives are not always drawn. Like-named read-outs stand apart in the source and are kept apart here.

In the case of `Cn1c(=O)n(C2CCC(=O)NC2=O)c2cccc(CN3CC(N4CCC(N5CCN(c6nccc(COc7ccc(C(C)(C)c8cc(Cl)cc(C#N)c8)cc7)n6)CC5)CC4)C3)c21` (centres unmarked) [Compound 9 trifluoroacetate, 3-chloro-5-(2-(4-((2-(4-(1-(1-((1-(2,6-dioxopiperidin-3-yl)-3-methyl-2-oxo-2,3-dihydro-1H-benzo[d]imidazol-4-yl)methyl)azetidin-3-yl)piperidin-4-yl)piperazin-1-yl)pyrimidin-4-yl)methoxy)phenyl)propan-2-yl)benzonitrile (Compound 9) trifluoroacetate], the “AR-FL Dmax % (maximum degradation rate)” value in the data set with full-length AR (AR-FL) amounted to 68.3%. For the same molecule, in data set [1], the “AR-Vs Dmax % (maximum degradation rate)” value came out at 76.8%.
The like results for `Cn1c(=O)n(C2CCC(=O)NC2=O)c2cccc(CN3CCC(CN4CCC(C5CCN(c6nccc(COc7ccc(C(C)(C)c8cc(Cl)c(OCCCl)c(C#N)c8)cc7)n6)CC5)CC4)CC3)c21` (centres unmarked) [Compound 126 trifluoroacetate, 3-chloro-2-(2-chloroethoxy)-5-(2-(4-((2-(1′-((1-((1-(2,6-dioxopiperidin-3-yl)-3-methyl-2-oxo-2,3-dihydro-1H-benzo[d]imidazol-4-yl)methyl)piperidin-4-yl)methyl)-[4,4′-bipiperidin]-1-yl)pyrimidin-4-yl)methoxy)phenyl)propan-2-yl)benzonitrile] were, in that order, 98% and 95%.
`Cn1c(=O)n(C2CCC(=O)NC2=O)c2ccc(N3CCC(C4CCN(CC5CCN(c6nccc(COc7ccc(C(C)(C)c8cc(Cl)cc(C#N)c8)cc7)n6)CC5)CC4)CC3)cc21` (centres unmarked) [Compound 88 trifluoroacetate, 3-chloro-5-(2-(4-((2-(4-((1′-(1-(2,6-dioxopiperidin-3-yl)-3-methyl-2-oxo-2,3-dihydro-1H-benzo[d]imidazol-5-yl)-[4,4′-bipiperidin]-1-yl)methyl)piperidin-1-yl)pyrimidin-4-yl)methoxy)phenyl)propan-2-yl)benzonitrile]: in the data set on 22RV1 cells (Homo sapiens, 22Rv1, 168 h), the IC50 came out at 899 nM. In addition, the “AR-FL Dmax % (maximum degradation rate)” value in the data set on full-length AR (AR-FL) stood at 64%. The AUC(0-t) (as a rule, the area under the concentration-time curve up to a stated or last time point) in data set [2] turned out to be 740 ± 362 ng·h/mL. The “AR-Vs Dmax % (maximum degradation rate)” value in data set [1] came out at 73%.
With `COc1c(Cl)cc(C(C)(C)c2ccc(OCc3ccnc(N4CCC(CN5CCC(C6CCN(c7ccc8c(c7)n(C)c(=O)n8C7CCC(=O)NC7=O)CC6)CC5)CC4)n3)cc2)cc1C#N` (centres unmarked) [Compound 97 trifluoroacetate, 3-chloro-5-(2-(4-((2-(4-((1′-(1-(2,6-dioxopiperidin-3-yl)-3-methyl-2-oxo-2,3-dihydro-1H-benzo[d]imidazol-5-yl)-[4,4′-bipiperidin]-1-yl)methyl)piperidin-1-yl)pyrimidin-4-yl)methoxy)phenyl)propan-2-yl)-2-methoxybenzonitrile (Compound 97) trifluoroacetate], in the data set with 22RV1 cells (Homo sapiens, 22Rv1, 168 h), the IC50 turned out to be 421 nM. For the same molecule, the DC50 (usually the midpoint of the concentration-degradation curve) with full-length AR (AR-FL) (setting [3]) was determined as 1180 nM; in data set [1] (setting [3]), 1070 nM. For the same molecule, the AUC(0-t) in data set [2] was found to be 658 ± 133 ng·h/mL.
With `CCOc1c(Cl)cc(C(C)(C)c2ccc(OCc3ccnc(N4CCC(CN5CCC(C6CCN(c7ccc8c(c7)n(C)c(=O)n8C7CCC(=O)NC7=O)CC6)CC5)CC4)n3)cc2)cc1C#N` (centres unmarked) [Compound 94 trifluoroacetate, 3-chloro-5-(2-(4-((2-(4-((1′-(1-(2,6-dioxopiperidin-3-yl)-3-methyl-2-oxo-2,3-dihydro-1H-benzo[d]imidazol-5-yl)-[4,4′-bipiperidin]-1-yl)methyl)piperidin-1-yl)pyrimidin-4-yl)methoxy)phenyl)propan-2-yl)-2-ethoxybenzonitrile], in the data set on 22RV1 cells (Homo sapiens, 22Rv1, 168 h), the IC50 was 678 nM. The “AR-FL Dmax % (maximum degradation rate)” value with full-length AR (AR-FL) turned out to be 84%. The AUC(0-t) in data set [2] was 1700 ± 335 ng·h/mL. In data set [1], the “AR-Vs Dmax % (maximum degradation rate)” value came out at 83%.
Turning to `CC(C)(c1ccc(OCc2ccnc(N3CCC(CN4CCC(C5CCN(c6ccc(C(=O)NC7CCC(=O)NC7=O)nc6)CC5)CC4)CC3)n2)cc1)c1cc(Cl)cc(C#N)c1` (centres unmarked) [Compound 110 trifluoroacetate, 5-(1′-((1-(4-((4-(2-(3-chloro-5-cyanophenyl)propan-2-yl)phenoxy)methyl)pyrimidin-2-yl)piperidin-4-yl)methyl)-[4,4′-bipiperidin]-1-yl)-N-(2,6-dioxopiperidin-3-yl)picolinamide], the IC50 in the data set on 22RV1 cells (Homo sapiens, 22Rv1, 168 h) came out at 446 nM. This molecule also displayed an AUC(0-t) in data set [2] of 563 ± 350 ng·h/mL. The “AR-Vs Dmax % (maximum degradation rate)” value in data set [1] worked out at 56%.
As to `Cn1c(=O)n(C2CCC(=O)NC2=O)c2cccc(CN3CC(N4CCC(N5CCN(c6nccc(COc7ccc(C(C)(C)c8cc(Cl)c(OCCCl)c(C#N)c8)cc7)n6)CC5)CC4)C3)c21` (centres unmarked) [Compound 6 trifluoroacetate, 3-chloro-2-(2-chloroethoxy)-5-(2-(4-((2-(4-(1-(1-((1-(2,6-dioxopiperidin-3-yl)-3-methyl-2-oxo-2,3-dihydro-1H-benzol[d]imidazol-4-yl)methyl)azetidin-3-yl)piperidin-4-yl)piperazin-1-yl)pyrimidin-4-yl)methoxy)phenyl)propan-2-yl)benzonitrile (Compound 6) trifluoroacetate], the “AR-FL Dmax % (maximum degradation rate)” value in the data set with full-length AR (AR-FL) is listed as 57.6%.
On to `CCOc1c(Cl)cc(C(C)(C)c2ccc(OCc3ccnc(N4CCN(C5CCN(C6CN(Cc7cccc8c7n(C)c(=O)n8C7CCC(=O)NC7=O)C6)CC5)CC4)n3)cc2)cc1C#N` (centres unmarked) [Compound 18, 3-chloro-5-(2-(4-((2-(4-(1-(1-((1-(2,6-dioxopiperidin-3-yl)-3-methyl-2-oxo-2,3-dihydro-1H-benzo[d]imidazol-4-yl)methyl)azetidin-3-yl)piperidin-4-yl)piperazin-1-yl)pyrimidin-4-yl)methoxy)phenyl)propan-2-yl)-2-ethoxybenzonitrile], for which, in the data set on 22RV1 cells, the IC50 amounted to 452 nM. For the same molecule, the “AR-FL Dmax % (maximum degradation rate)” value in the data set on full-length AR (AR-FL) came out at 53%. Further, the “AR-Vs Dmax % (maximum degradation rate)” value in data set [1] was 91%.
Consider `COc1c(Cl)cc(C(C)(C)c2ccc(OCc3ccnc(N4CCC(CN5CCC(N6CCC(c7ccc8c(c7)n(C)c(=O)n8C7CCC(=O)NC7=O)CC6)CC5)CC4)n3)cc2)cc1C#N` (centres unmarked) [Compound 116 trifluoroacetate, 3-chloro-5-(2-(4-((2-(4-((4-(1-(2,6-dioxopiperidin-3-yl)-3-methyl-2-oxo-2,3-dihydro-1H-benzo[d]imidazol-5-yl)-[1,4′-bipiperidin]-1′-yl)methyl)piperidin-1-yl)pyrimidin-4-yl)methoxy)phenyl)propan-2-yl)-2-methoxybenzonitrile], for which the IC50 with 22RV1 cells (Homo sapiens, 22Rv1, 168 h) stood at 821 nM. Also, the “AR-FL Dmax % (maximum degradation rate)” value with full-length AR (AR-FL) is reported as 77%. For the same molecule, the “AR-Vs Dmax % (maximum degradation rate)” value in data set [1] was 67%.
On to `CC(C)(c1ccc(OCc2ccnc(N3CCN(C4CCN(C5CN(c6ccc7c(c6)C(=O)N(C6CCC(=O)NC6=O)C7=O)C5)CC4)CC3)n2)cc1)c1cc(Cl)c(OCCCl)c(C#N)c1` (centres unmarked) [Compound 5 trifluoroacetate, 3-chloro-2-(2-chloroethoxy)-5-(2-(4-((2-(4-(1-(1-(2-(2,6-dioxopiperidin-3-yl)-1,3-dioxoisoindolin-5-yl)azetidin-3-yl)piperidin-4-yl)piperazin-1-yl)pyrimidin-4-yl)methoxy)phenyl)propan-2-yl)benzonitrile (Compound 5) trifluoroacetate], for which, in the data set on full-length AR (AR-FL), the “AR-FL Dmax % (maximum degradation rate)” value turned out to be 52.5%.
Turning to `CC(C)(c1ccc(OCc2ccnc(N3CCN(C4CCN(C5CN(c6ccc7c(c6)C(=O)N(C6CCC(=O)NC6=O)C7=O)C5)CC4)CC3)n2)cc1)c1cc(Cl)cc(C#N)c1` (centres unmarked) [Compound 10, 3-chloro-5-(2-(4-((2-(4-(1-(1-(2-(2,6-dioxopiperidin-3-yl)-1,3-dioxoisoindolin-5-yl)azetidin-3-yl)piperidin-4-yl)piperazin-1-yl)pyrimidin-4-yl)methoxy)phenyl)propan-2-yl)benzonitrile], the IC50 in the data set on 22RV1 cells worked out at 562 nM. The “AR-Vs Dmax % (maximum degradation rate)” value in data set [1] came out at 64%.

Values taken from US20240383874A1, “BENZENE RING DERIVATIVE, AND COMPOSITION AND PHARMACEUTICAL USE THEREOF” (Xizang Haisco Pharmaceutical Co., Ltd., priority 2020, published 2024).
